Experimental data reported in ChEMBL document CHEMBL1152920, “Monoterpene glucosides from Paeonia lactiflora” (J Nat Prod, 2009).
The source made the active and inactive calls. No cut-off for these calls is given here.

tested on: PC-12; experiment: Cytoprotective activity against hydrogen peroxide-induced cell damage in rat PC12 cells assessed as cell viability treated 2 hrs before hydrogen peroxide challenge by MTT assay; assay type: functional, cell-based

Row | Compound | Activity
1 | C=C1C(OC)O[C@]2(O[C@@H]3O[C@H](CO)[C@@H](O)[C@H](O)[C@H]3O)C[C@H]1C(=O)C=C2C (some centres undefined) | Active
2 | COC1O[C@@]2(C)CC(=O)[C@@H]3C[C@]2(O[C@@H]2O[C@H](CO)[C@@H](O)[C@H](O)[C@H]2O)[C@]13CO (some centres undefined) | Active
3 | COCC1=CO[C@]2(O[C@@H]3O[C@H](CO)[C@@H](O)[C@H](O)[C@H]3O)C[C@H]1C(=O)C=C2C | Active
4 | CC1=CC(=O)[C@@H]2C[C@@]1(O[C@@H]1O[C@H](CO)[C@@H](O)[C@H](O)[C@H]1O)OC=C2CO | Active
